Test results from ChEMBL document CHEMBL1138337, “Bis-azaaromatic quaternary ammonium salts as antagonists at nicotinic receptors mediating nicotine-evoked dopamine release: An investigation of binding conformation” (2007).

Legend:
[1] = biological target: Neuronal acetylcholine receptor subunit alpha-7 (Rattus norvegicus) (UniProt Q05941); test: Displacement of [3H]MLA from alpha-7 nAChR expressed in rat brain membrane at 100 nM
[2] = biological target: Neuronal acetylcholine receptor; alpha4/beta2 (Rattus norvegicus) (UniProt P09483+P12390); test: Displacement of [3H]NIC from alpha-4-beta-2 nAChR expressed in rat brain membrane at 100 nM

Chain of Neuronal acetylcholine receptor subunit alpha-7 (Rattus norvegicus) (Q05941 whole entry): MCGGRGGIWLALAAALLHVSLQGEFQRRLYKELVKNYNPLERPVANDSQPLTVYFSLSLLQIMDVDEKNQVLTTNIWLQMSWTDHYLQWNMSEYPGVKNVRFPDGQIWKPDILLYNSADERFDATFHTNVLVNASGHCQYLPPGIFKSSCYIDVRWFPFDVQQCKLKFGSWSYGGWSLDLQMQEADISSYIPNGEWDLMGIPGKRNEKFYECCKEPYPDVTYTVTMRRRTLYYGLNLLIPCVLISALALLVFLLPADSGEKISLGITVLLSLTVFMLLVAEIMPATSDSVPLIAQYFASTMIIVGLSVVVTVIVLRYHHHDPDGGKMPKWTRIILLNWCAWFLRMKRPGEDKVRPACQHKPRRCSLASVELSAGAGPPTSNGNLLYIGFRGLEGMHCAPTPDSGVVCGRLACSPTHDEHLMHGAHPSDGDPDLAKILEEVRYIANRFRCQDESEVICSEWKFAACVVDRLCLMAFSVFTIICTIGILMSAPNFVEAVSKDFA

SMILES	inhibition [1]	inhibition [2]
CN1CCC[C@H]1c1ccc[n+](CCCC#Cc2ccccc2C#CCCC[n+]2cccc([C@@H]3CCCN3C)c2)c1	9.2%	72%
Cc1cccc[n+]1CCCCc1ccc(CCCC[n+]2ccccc2C)cc1	0.16%	6.3%
CN1CCC[C@H]1c1ccc[n+](CCCC#Cc2cccc(C#CCCC[n+]3cccc([C@@H]4CCCN4C)c3)c2)c1	2.6%	3.1%
Cc1ccc[n+](CCCCCCCCCCCC[n+]2cccc(C)c2)c1	0%	0%
Cc1cc[n+](CCCCCc2ccccc2CCCCC[n+]2ccc(C)cc2)cc1	3.1%	0%
Cc1cc[n+](CCCC#Cc2cccc(C#CCCC[n+]3ccc(C)cc3)c2)cc1	6.4%	10%
Cc1cc[n+](CCC#Cc2ccc(C#CCC[n+]3ccc(C)cc3)cc2)cc1	2.7%	8.9%
Cc1cccc[n+]1CCCC#Cc1cccc(C#CCCC[n+]2ccccc2C)c1	0%	1.9%
Cc1cccc[n+]1CCCC#Cc1ccccc1C#CCCC[n+]1ccccc1C	1.2%	2.1%
Cc1ccc[n+](CCCC#Cc2cccc(C#CCCC[n+]3cccc(C)c3)c2)c1	8%	0.5%
Cc1ccc[n+](CCC#Cc2ccc(C#CCC[n+]3cccc(C)c3)cc2)c1	3.1%	13%
Cc1ccc[n+](CCCC#Cc2ccccc2C#CCCC[n+]2cccc(C)c2)c1	0%	3.9%
Cc1cc[n+](CCCC#Cc2ccccc2C#CCCC[n+]2ccc(C)cc2)cc1	5.4%	2.5%
Cc1cc[n+](CCCCCc2cccc(CCCCC[n+]3ccc(C)cc3)c2)cc1	3.5%	4.6%
Cc1cc[n+](CCCCc2ccc(CCCC[n+]3ccc(C)cc3)cc2)cc1	7.73%	1.1%
CN1CCC[C@H]1c1ccc[n+](CCCCc2ccc(CCCC[n+]3cccc([C@@H]4CCCN4C)c3)cc2)c1	5.3%	3.66%
Cc1ccc[n+](CCCCc2ccc(CCCC[n+]3cccc(C)c3)cc2)c1	7.41%	4.33%
CN1CCC[C@H]1c1ccc[n+](CCCCCc2ccccc2CCCCC[n+]2cccc([C@@H]3CCCN3C)c2)c1	11%	71%
Cc1cccc[n+]1CCCCCc1cccc(CCCCC[n+]2ccccc2C)c1	0%	7.2%
Cc1cccc[n+]1CCCCCc1ccccc1CCCCC[n+]1ccccc1C	7.6%	0%
Cc1ccc[n+](CCCCCc2ccccc2CCCCC[n+]2cccc(C)c2)c1	5.4%	0%
Cc1ccc[n+](CCCCCc2cccc(CCCCC[n+]3cccc(C)c3)c2)c1	6.24%	3.5%
